In US20030224390A1, “Method of identifying conformation-sensitive binding peptides and uses thereof” (Karo Bio AB, priority 2000, published 2003):

Experiments:
androgen receptor [1] = target: T1, androgen receptor (Homo sapiens, UniProt P10275); test: Yeast two-hybrid screening of unbiased X15 peptide library, ligand induced β-galactosidase activity (FIG. 3, Table 503); assay type: cell-based; set-up: expressed in transfected cells; host or cells: Saccharomyces cerevisiae PJ69-4α; ligand induced β-galactosidase activity, No Lig / ligand induced β-galactosidase activity, DHT / ligand induced β-galactosidase activity, CPA / ligand induced β-galactosidase activity, RU / ligand induced β-galactosidase activity, Test / ligand induced β-galactosidase activity, MPA: unit not given here; settings: for ligand induced β-galactosidase activity, CPA / ligand induced β-galactosidase activity, DHT / ligand induced β-galactosidase activity, MPA / ligand induced β-galactosidase activity, RU / ligand induced β-galactosidase activity, Test / ligand induced β-galactosidase activity, No Lig: yeast two-hybrid; for Fold induction: untitled table before Table 503, values match DHT / No Lig of Table 503
T1 sequence (P10275 1-920): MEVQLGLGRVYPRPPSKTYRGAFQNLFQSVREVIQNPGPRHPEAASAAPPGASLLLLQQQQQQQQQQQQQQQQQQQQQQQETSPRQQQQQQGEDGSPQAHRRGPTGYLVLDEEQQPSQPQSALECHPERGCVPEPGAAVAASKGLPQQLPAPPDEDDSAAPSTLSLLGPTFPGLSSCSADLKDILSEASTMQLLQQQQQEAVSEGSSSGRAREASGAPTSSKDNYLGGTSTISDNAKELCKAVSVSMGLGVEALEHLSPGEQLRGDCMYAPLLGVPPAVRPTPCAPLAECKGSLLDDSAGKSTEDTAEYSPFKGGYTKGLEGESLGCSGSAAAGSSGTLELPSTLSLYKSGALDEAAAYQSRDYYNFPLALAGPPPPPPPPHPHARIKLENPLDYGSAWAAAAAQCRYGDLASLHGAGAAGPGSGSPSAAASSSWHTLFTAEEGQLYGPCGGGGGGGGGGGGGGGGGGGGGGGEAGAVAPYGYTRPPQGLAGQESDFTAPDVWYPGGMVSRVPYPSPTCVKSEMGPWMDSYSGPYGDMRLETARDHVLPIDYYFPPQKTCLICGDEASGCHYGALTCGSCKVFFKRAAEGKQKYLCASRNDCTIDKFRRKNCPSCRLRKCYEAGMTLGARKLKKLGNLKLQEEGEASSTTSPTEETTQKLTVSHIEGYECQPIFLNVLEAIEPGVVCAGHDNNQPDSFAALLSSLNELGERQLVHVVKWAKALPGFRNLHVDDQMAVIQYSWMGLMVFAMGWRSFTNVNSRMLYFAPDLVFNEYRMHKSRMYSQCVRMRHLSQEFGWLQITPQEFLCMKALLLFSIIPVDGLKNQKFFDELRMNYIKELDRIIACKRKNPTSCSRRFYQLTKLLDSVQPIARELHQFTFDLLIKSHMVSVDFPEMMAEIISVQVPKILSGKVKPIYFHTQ
Text: Our library contained predominantly 15 random amino acid residues/peptide in order to identify motifs that might interact with nuclear receptor domains. If ligand is provided to the cells, one can screen for peptides that interact with the ligand-bound receptor. […] Included at the ends of the oligonucleotide were the synthetic restriction endonuclease cleavage sites, EcoRI or Mfe I (5′ end) and Sal I (3′ end). Oligonucleotides were annealed, then cleaved with excess restriction endonuclease and purified on agarose gels. The purified set of oligonucleotides was subcloned as an in-frame carboxy-terminal fusion to a Gal4 DNA binding domain (plasmid vector pMA424 derivative). […] The transformation mix was divided and grown on plates of selective media containing ligand and 25 mM 3-aminotriazole at 30° C. until colonies appeared in 3-7 days. […] Dihydrotestosterone (DHT) and medroxyprogesterone (MPA) were added to the media at 100 nM to identify peptides that interact with the receptor in the presence of ligand. After colonies appeared they were picked and dispersed into individual wells of a 96-well plate containing rich media (YPD).
To determine ligand dependence, two microliter aliquots were removed from the cell suspension, and arrayed and spotted onto each of two rectangular agar plates, one with 100 nM ligand and one without ligand. Growth was monitored daily.
A secondary test of ligand dependent activation was performed using the integrated GAL4-driven lacZ gene. Cell suspensions of the initial positive clones were diluted 20-fold into 20 microliters of rich media in a microplate and grown overnight at 30° C. in the presence and absence of ligand. Microplates were centrifuged for 5 minutes at 3000 rpm in a swinging table top centrifuge to pellet the yeast cells, and the overlying media was aspirated. […] An OD650 density determination was made to normalize the β-galactosidase activity. β-galactosidase activity was monitored following the addition of buffer containing chlorophenol red-β-galactopyranoside (CPRG) (Boehringer Mannheim) substrate at a final concentration of 0.5 mM. […] The maximum slope value of this measurement was normalized to cell density from the initial OD650 value, and the relative ligand dependence of β-galactosidase was determined by comparing the values plus and minus ligand.
In FIG. 3, all of these ligands were tested. The plasmids from true positives were extracted using standard yeast extraction protocols and re-transformed to verify the positive phenotype.

androgen receptor [2] = target: T1, androgen receptor; assay type: cell-based; set-up: expressed in transfected cells; settings: for luciferase normalized to β-galactosidase, DHT / luciferase normalized to β-galactosidase, MPA / luciferase normalized to β-galactosidase, RU486 / luciferase normalized to β-galactosidase, no compound: mammalian two-hybrid, Huh-7 cells; for luciferase normalized to β-galactosidase, DHT: ligand DHT; for luciferase normalized to β-galactosidase, MPA: ligand MPA; for luciferase normalized to β-galactosidase, RU486: ligand RU486
Text: We used a mammalian two-hybrid system to determine specificities of the AR-binding peptides previously identified, through screening of the aforementioned yeast library, as ligand-dependent in their binding activity. Ligand was provided to the cells so the interaction could be observed. The human hepatoma cell line, Huh-7, was used as the recipient of two-hybrid vectors, pM and pVP16 (Clontech) (FIGS. 6A and 6B), containing fusions with peptide and AR, respectively. According to Clontech literature, the Clontech vectors pM and VP16 generate fusions of protein X with the GAL4 DNA-BD and fusions of protein Y with the VP16AD, in the Mammalian MM Two-Hybrid Assay Kit (#K1602-1). (Note: pM and VP16 contain unique cloning sites in the same order and reading frame as the DNA-BD and AD, respectively, vectors in the yeast […] Two-Hybrid Systems.) A third vector, pG5CAT, provides a CAT reporter gene under the control of a GAL4-responsive element and minimal promoter of the adenovirus E1b. The three vectors are cotransfected into any suitable mammalian host cell line by standard methods. The interaction between proteins X and Y is then assayed by measuring CAT gene expression by any standard method. In the absence of activation (i.e., no protein-protein interaction), the minimal E1b promoter will not express significant levels of CAT.
Briefly, cells are seeded in a 24-well culture plate to a density of 50-80% confluence in phenol red-free media containing charcoal-dextran stripped fetal bovine serum (10%). Following incubation overnight, cells are transfected with plasmids pM-peptide, pVP16-AR, pCMV-b-gal, and p5XGAL-Luc3 DNAs using lipofectamine 2000 (LifeTech) according to the manufacturer's protocol. Transfections are allowed to proceed for 6 hours and the transfection media is aspirated and replaced with recovery media for 18 hours. Following the recovery period, cells are treated with compound for 24 hours prior to cell harvesting. Cells are washed with PBS and then lysed using the lysis buffer from the Galacto-Light Plus β-galactosidase assay kit (Tropix). Assays for luciferase and β-galactosidase were performed as described by the manufacturer. Peptide/AR interactions are described in terms of the luciferase activity normalized for transfection efficiency using β-galactosidase activity (see FIG. 4A). Two types of useful information arose from these methods: 1) we generated a panel of useful peptide probes to analyze the conformational state of AR, and 2) we “fingerprinted” AR modulators with respect to AR conformation (FIG. 4B). […] FIG. 4B is the converse of 4A. It compares the ability of six ligands (DHT, MPA, CYP, RU486, FLUT and DHEAs to interact with AR in the presence of each of four peptides (D30, 5G11, B8H3 and […]). Thus, it is a “fingerprint” of each of the six ligands using a four peptide panel. (Note that “1269” and D30” refer to the same peptide.)

[3] = target: T2, pVP16-AR (VP16 activation domain fused to androgen receptor), P10275; test: cell-based or functional assay
T2 chain: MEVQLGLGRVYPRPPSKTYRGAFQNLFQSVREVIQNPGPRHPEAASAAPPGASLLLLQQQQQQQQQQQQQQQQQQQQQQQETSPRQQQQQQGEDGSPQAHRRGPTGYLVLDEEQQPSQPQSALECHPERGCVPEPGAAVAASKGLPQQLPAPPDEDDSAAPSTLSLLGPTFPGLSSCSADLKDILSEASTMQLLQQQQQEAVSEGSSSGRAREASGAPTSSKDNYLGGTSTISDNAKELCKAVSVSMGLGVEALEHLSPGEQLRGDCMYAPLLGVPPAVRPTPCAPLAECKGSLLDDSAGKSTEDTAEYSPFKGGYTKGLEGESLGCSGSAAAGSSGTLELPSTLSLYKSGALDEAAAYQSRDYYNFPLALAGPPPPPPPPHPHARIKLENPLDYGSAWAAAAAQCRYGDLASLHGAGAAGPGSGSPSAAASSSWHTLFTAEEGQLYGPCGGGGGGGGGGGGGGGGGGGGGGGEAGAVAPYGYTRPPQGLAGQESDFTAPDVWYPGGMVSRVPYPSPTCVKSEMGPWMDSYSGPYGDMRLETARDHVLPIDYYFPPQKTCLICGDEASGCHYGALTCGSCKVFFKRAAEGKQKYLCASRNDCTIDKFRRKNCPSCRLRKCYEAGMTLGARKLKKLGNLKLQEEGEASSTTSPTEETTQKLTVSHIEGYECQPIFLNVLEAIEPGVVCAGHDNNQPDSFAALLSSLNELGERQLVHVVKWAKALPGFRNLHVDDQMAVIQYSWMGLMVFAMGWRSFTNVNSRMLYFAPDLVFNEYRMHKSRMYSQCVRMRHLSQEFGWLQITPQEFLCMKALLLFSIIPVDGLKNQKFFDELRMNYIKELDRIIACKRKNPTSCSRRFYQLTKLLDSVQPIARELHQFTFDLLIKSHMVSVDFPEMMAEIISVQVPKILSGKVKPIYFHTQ

[4] = target: T3, Gal4 transcriptional activation domain (AD) fused in frame with AR (pGAD-C2) (yeast), P10275; test: cell-based or functional assay
T3 chain: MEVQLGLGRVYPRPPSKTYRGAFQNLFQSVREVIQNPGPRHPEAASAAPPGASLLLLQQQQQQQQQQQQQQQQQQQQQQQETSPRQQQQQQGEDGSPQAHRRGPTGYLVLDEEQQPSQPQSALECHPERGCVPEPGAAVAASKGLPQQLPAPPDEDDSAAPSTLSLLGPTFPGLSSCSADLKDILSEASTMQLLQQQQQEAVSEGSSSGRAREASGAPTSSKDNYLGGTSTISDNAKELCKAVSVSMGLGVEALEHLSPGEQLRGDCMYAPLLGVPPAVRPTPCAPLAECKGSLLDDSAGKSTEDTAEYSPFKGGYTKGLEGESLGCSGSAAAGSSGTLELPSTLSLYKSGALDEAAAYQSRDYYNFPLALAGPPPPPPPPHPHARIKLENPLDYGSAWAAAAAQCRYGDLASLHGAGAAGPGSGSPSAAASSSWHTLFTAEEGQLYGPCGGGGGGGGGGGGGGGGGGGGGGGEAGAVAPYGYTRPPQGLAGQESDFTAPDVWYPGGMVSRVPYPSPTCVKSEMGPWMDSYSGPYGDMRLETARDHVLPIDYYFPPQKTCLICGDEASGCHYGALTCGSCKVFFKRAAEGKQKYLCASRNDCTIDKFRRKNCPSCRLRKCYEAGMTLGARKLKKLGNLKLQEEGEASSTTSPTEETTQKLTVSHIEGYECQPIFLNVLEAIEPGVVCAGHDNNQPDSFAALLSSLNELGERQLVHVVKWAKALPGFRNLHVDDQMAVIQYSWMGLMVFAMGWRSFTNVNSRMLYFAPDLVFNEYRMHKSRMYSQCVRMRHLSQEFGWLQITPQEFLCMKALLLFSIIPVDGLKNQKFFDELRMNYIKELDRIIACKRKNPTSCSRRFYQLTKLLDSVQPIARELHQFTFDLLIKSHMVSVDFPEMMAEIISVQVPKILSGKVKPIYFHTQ

Molecule | ligand induced β-galactosidase activity, CPA (androgen receptor [1]) | ligand induced β-galactosidase activity, DHT (androgen receptor [1]) | ligand induced β-galactosidase activity, MPA (androgen receptor [1]) | ligand induced β-galactosidase activity, RU (androgen receptor [1]) | ligand induced β-galactosidase activity, Test (androgen receptor [1]) | ligand induced β-galactosidase activity, No Lig (androgen receptor [1]) | Fold induction (androgen receptor [1]) | luciferase normalized to β-galactosidase, CYP. (androgen receptor [2]) | luciferase normalized to β-galactosidase, DHT (androgen receptor [2]) | luciferase normalized to β-galactosidase, MPA (androgen receptor [2]) | luciferase normalized to β-galactosidase, RU486 (androgen receptor [2]) | luciferase normalized to β-galactosidase, no compound (androgen receptor [2]) | further results
EFRFPFHEMVREWESMGLERVRYAEP [M4D1] | −0.03955 | 0.3948 | 1.698 | 0.1 | 0.1337 | 0 |  |  |  |  |  |  | 
EFRQSFVSEILGGGWLPLDLOPS [M2H3] | 8.592 | 24.12 | 19.25 | 6.8 | 26.57 | 2.53 | 10 |  |  |  |  |  | 
EFRSSVFEQMYLCTGGSLDLQPS* [B5G11] | 0.9726 | 3.964 |  | 0.9 |  | 0.6382 |  | 4.462 | 15.84 | 8.029 | 0.1051 | 0.05028 | 
EFVNWDAVVPWSELVALLDLOPS [B8A10] | 0.3955 | 0.6163 |  | 0.4 |  | 0.8753 | 1 |  |  |  |  |  | 
HPTHSSRLWELLMEATPTM [D30] |  |  |  |  |  |  |  | 11.18 | 12.59 | 15.62 | 0.8461 | 0.03854 | 
B5G11, P04386 1-147 (modifications not checked) MKLLSSIEQACDICRLKKLKCSKEKPKCAKCLKNNWECRYSPKTKRSPLTRAHLTEVESRLERLEQLFLLIFPREDLDMILKMDSLQDIKALLTGLFVQDNVNKDAVTDRLASVETDMPLTLRQHRISATSSSEESSNKGQRQLTVSEFRSSVFEQMYLCTGGSLDLQPS |  |  |  |  |  |  |  |  |  |  |  |  | normalized luciferase activity, mammalian two-hybrid; CYP. [3]: 4.46; normalized luciferase activity, mammalian two-hybrid; DHT [3]: 15.8; normalized luciferase activity, mammalian two-hybrid; MPA [3]: 8.03; normalized luciferase activity, mammalian two-hybrid; RU486 [3]: 0.105; normalized luciferase activity, mammalian two-hybrid; no compound [3]: 0.0503; Fold induction, yeast two-hybrid [4]: 6 fold; β-galactosidase activity, yeast two-hybrid; CPA [4]: 0.973; β-galactosidase activity, yeast two-hybrid; DHT [4]: 3.96; β-galactosidase activity, yeast two-hybrid; No Lig [4]: 0.638; β-galactosidase activity, yeast two-hybrid; RU [4]: 0.9
